In the NIST ThermoML archive (doi:10.1021/acs.jced.7b00564):

Assay: xn = mol fraction of the nth substance listed
Conditions: Gas, isochoric method

F/C=C/C(F)(F)F [trans-1,3,3,3-tetrafluoropropene] + CC(C)C
Conditions	specific volume [m3/kg]
343.15 K, 351.2 kPa, x2 = 0.428	0.0846
343.15 K, 369.8 kPa, x2 = 0.612	0.0892
343.15 K, 425.4 kPa, x2 = 0.755	0.0858
348.15 K, 302.3 kPa, x2 = 0.516	0.1064
348.15 K, 312.2 kPa, x2 = 0.29	0.0897
348.15 K, 356.5 kPa, x2 = 0.685	0.1006
348.15 K, 356.9 kPa, x2 = 0.428	0.0846
348.15 K, 375.8 kPa, x2 = 0.612	0.0892
348.15 K, 432.4 kPa, x2 = 0.755	0.0858
353.15 K, 307 kPa, x2 = 0.516	0.1064
353.15 K, 317.1 kPa, x2 = 0.29	0.0897
353.15 K, 362.1 kPa, x2 = 0.685	0.1006
353.15 K, 362.6 kPa, x2 = 0.428	0.0846
353.15 K, 381.8 kPa, x2 = 0.612	0.0892
353.15 K, 439.4 kPa, x2 = 0.755	0.0858
358.15 K, 311.7 kPa, x2 = 0.516	0.1064
358.15 K, 321.9 kPa, x2 = 0.29	0.0897
358.15 K, 367.7 kPa, x2 = 0.685	0.1007
358.15 K, 368.2 kPa, x2 = 0.428	0.0846
358.15 K, 387.8 kPa, x2 = 0.612	0.0892
358.15 K, 446.5 kPa, x2 = 0.755	0.0858
363.15 K, 316.4 kPa, x2 = 0.516	0.1065
363.15 K, 326.8 kPa, x2 = 0.29	0.0898
363.15 K, 373.3 kPa, x2 = 0.685	0.1007
363.15 K, 373.9 kPa, x2 = 0.428	0.0846
363.15 K, 393.7 kPa, x2 = 0.612	0.0892
363.15 K, 453.5 kPa, x2 = 0.755	0.0858
368.15 K, 321.1 kPa, x2 = 0.516	0.1065
368.15 K, 331.6 kPa, x2 = 0.29	0.0898
368.15 K, 379 kPa, x2 = 0.685	0.1007
368.15 K, 379.5 kPa, x2 = 0.428	0.0846
368.15 K, 399.7 kPa, x2 = 0.612	0.0893
368.15 K, 460.5 kPa, x2 = 0.755	0.0859
373.15 K, 325.7 kPa, x2 = 0.516	0.1065
373.15 K, 336.5 kPa, x2 = 0.29	0.0898
373.15 K, 384.7 kPa, x2 = 0.685	0.1007
373.15 K, 385.1 kPa, x2 = 0.428	0.0847
373.15 K, 405.6 kPa, x2 = 0.612	0.0893
373.15 K, 467.6 kPa, x2 = 0.755	0.0859
378.15 K, 330.4 kPa, x2 = 0.516	0.1065
378.15 K, 341.4 kPa, x2 = 0.29	0.0898
378.15 K, 390.3 kPa, x2 = 0.685	0.1007
378.15 K, 390.7 kPa, x2 = 0.428	0.0847
378.15 K, 411.7 kPa, x2 = 0.612	0.0893
378.15 K, 474.5 kPa, x2 = 0.755	0.0859
383.15 K, 335.1 kPa, x2 = 0.516	0.1066
383.15 K, 346.2 kPa, x2 = 0.29	0.0898
383.15 K, 395.9 kPa, x2 = 0.685	0.1008
383.15 K, 396.3 kPa, x2 = 0.428	0.0847
383.15 K, 417.6 kPa, x2 = 0.612	0.0893
383.15 K, 481.6 kPa, x2 = 0.755	0.0859
